Results from article PMC12527922, “Cocaine chemogenetics blunts drug-seeking by synthetic physiology” (Nature, 2025).
“And” between values parts separate entries of the source, which are not always exact repeats. Equal entries are not always repeated.

How the values were obtained:
[1] = molecular target: coca-5HT3 (α7(L141G,G175K,Y210F,Y217F)–5HT3) (Homo sapiens, UniProt P36544, G175K/L141G/Y210F/Y217F); test: Membrane potential assay, coca-5HT3 in HEK293; conditions: for Response: coca-5HT3, ED Fig. 2c
unmodified α7–5HT3 = molecular target: T1, unmodified α7–5HT3 (UniProt P23979+P36544, M226I/T225I); test: Membrane potential assay, unmodified α7–5HT3; format: cell-based, human α7 nAChR LBD, mouse 5HT3 IPD
T1 construct: expressed in transfected cells; host or cells: HEK293 (ATCC CRL-1573), pcDNA3.1

[2] = coca5HT3, [Nicotine] 1.37037 uM
[3] = coca5HT3, [Nicotine] 4.11111 uM
[4] = coca5HT3, [Nicotine] 12.3333 uM
[5] = a75HT3, [Nicotine] 0.0457247 uM

T1 sequence (P36544+P23979 fused P36544:T225I/P36544:M226I): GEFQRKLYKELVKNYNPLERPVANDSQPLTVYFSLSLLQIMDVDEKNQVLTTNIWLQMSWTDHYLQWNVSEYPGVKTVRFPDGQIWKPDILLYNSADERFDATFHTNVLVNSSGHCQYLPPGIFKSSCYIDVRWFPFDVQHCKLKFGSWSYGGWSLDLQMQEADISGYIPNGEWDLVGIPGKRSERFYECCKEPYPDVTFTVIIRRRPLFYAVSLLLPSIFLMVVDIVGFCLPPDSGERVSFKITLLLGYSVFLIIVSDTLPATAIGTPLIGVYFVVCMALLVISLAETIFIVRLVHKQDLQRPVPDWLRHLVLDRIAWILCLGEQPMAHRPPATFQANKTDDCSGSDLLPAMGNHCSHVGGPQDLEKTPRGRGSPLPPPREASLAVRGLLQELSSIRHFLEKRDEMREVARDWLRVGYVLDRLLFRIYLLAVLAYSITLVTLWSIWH
Sequence of coca-5HT3 (α7(L141G,G175K,Y210F,Y217F)–5HT3) (P36544 23-224 L141G/G175K/Y210F/Y217F): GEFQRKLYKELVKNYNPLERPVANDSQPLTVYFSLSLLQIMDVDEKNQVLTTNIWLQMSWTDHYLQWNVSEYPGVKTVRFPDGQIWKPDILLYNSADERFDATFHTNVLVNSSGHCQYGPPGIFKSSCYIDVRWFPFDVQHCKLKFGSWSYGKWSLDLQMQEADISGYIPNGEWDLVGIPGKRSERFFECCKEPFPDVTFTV
Sequence of coca-5HT3 (α7(L141G,G175K,Y210F,Y217F)–5HT3) (P23979 242-489, further chain): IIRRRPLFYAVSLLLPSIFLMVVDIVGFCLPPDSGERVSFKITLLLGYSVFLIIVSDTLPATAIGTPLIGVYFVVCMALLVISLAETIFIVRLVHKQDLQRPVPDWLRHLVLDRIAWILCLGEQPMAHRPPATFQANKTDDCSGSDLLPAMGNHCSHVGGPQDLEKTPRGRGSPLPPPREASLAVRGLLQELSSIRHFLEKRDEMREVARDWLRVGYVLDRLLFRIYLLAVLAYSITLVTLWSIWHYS

Compound: CN1CCC[C@H]1c1cccnc1 [nicotine]
- reduced potency for coca-5HT3 versus unmutated α7–5HT3 [1]: greater than 300 fold
- max response of each dose-response replicate ([1]; coca5HT3, Nicotine, used for normalization): 0.477 and 0.607 and 0.383 and 0.555
- Max normalized response, AVG [1, 2]: 0.06271
- Max normalized response, replicates [1, 2]: 0.03243 and 0.1069 and 0.09061 and 0.02089
- Response, dose-response replicates (DR 1-4) [1, 2]: 0.051 and 0.055 and 0.008 and 0.018
- Max normalized response, AVG [1, 3]: 0.05584
- Max normalized response, replicates [1, 3]: 0.06667 and 0.05451 and 0.03954 and 0.06266
- Response, dose-response replicates (DR 1-4) [1, 3]: 0.026 and 0.024 (2×) and 0.037
- Max normalized response, AVG [1, 4]: 0.06127
- Max normalized response, replicates [1, 4]: 0.03964 and 0.07966 and 0.08402 and 0.04178
- Response, dose-response replicates (DR 1-4) [1, 4]: 0.038 and 0.051 and 0.016 and 0.022
- Max normalized response, AVG ([1]; coca5HT3, [Nicotine] 37 uM): 0.1199
- Max normalized response, replicates ([1]; coca5HT3, [Nicotine] 37 uM): 0.1225 and 0.1426 and 0.196 and 0.01828
- Response, dose-response replicates (DR 1-4) ([1]; coca5HT3, [Nicotine] 37 uM): 0.068 (2×) and 0.119 and 0.007
- Max normalized response, AVG ([1]; coca5HT3, [Nicotine] 111 uM): 0.2452
- Max normalized response, replicates ([1]; coca5HT3, [Nicotine] 111 uM): 0.3009 and 0.2537 and 0.374 and 0.05222
- Response, dose-response replicates (DR 1-4) ([1]; coca5HT3, [Nicotine] 111 uM): 0.121 and 0.227 and 0.02 and 0.167
- Max normalized response, AVG ([1]; coca5HT3, [Nicotine] 333 uM): 0.4535
- Max normalized response, replicates ([1]; coca5HT3, [Nicotine] 333 uM): 0.5495 and 0.5975 and 0.5157 and 0.1514
- Response, dose-response replicates (DR 1-4) ([1]; coca5HT3, [Nicotine] 333 uM): 0.285 and 0.313 and 0.058 and 0.305
- Max normalized response, AVG ([1]; coca5HT3, [Nicotine] 1000 uM): 0.6843
- Max normalized response, replicates ([1]; coca5HT3, [Nicotine] 1000 uM): 0.8198 and 0.7044 and 0.7249 and 0.4883
- Response, dose-response replicates (DR 1-4) ([1]; coca5HT3, [Nicotine] 1000 uM): 0.44 and 0.187 and 0.455
- Max normalized response, AVG ([1]; coca5HT3, [Nicotine] 3000 uM): 1
- Max normalized response, replicates ([1]; coca5HT3, [Nicotine] 3000 uM): 1
- Response, dose-response replicates (DR 1-4) ([1]; coca5HT3, [Nicotine] 3000 uM): 0.477 and 0.607 and 0.383 and 0.555
- Response ([1]; conc 0.0137 uM): 0.106
- Response ([1]; conc 0.123 uM): 0.216
- Response ([1]; conc 0.37 uM): 0.045
- Response ([1]; conc 10 uM): 0.163
- Response ([1]; conc 30 uM): 0.238
- activity at unmutated α7–5HT3 chimeric channel (unmodified α7–5HT3): agonist
- max response of each dose-response replicate (unmodified α7–5HT3; a75HT3, Nicotine, used for normalization): 0.486 (2×) and 0.554 (2×) and 0.608 (2×)
- Max normalized response, AVG (unmodified α7–5HT3; [5]): 0.008293
- Max normalized response, replicates (unmodified α7–5HT3; [5]): 0 (2×) and 0.02166 (2×) and 0.01151 (2×)
- Response, dose-response replicates (DR 1-6) (unmodified α7–5HT3; [5]): 0 (2×) and 0.012 (2×) and 0.007 (2×)
- Max normalized response, AVG (unmodified α7–5HT3; a75HT3, [Nicotine] 0.137174 uM): 0.001891
- Max normalized response, replicates (unmodified α7–5HT3; a75HT3, [Nicotine] 0.137174 uM): 0.002058 (2×) and 0.001805 (2×) and 0.001645 (2×)
- Response, dose-response replicates (DR 1-6) (unmodified α7–5HT3; a75HT3, [Nicotine] 0.137174 uM): 0.001
- Max normalized response, AVG (unmodified α7–5HT3; a75HT3, [Nicotine] 0.411523 uM): 0.009729
- Max normalized response, replicates (unmodified α7–5HT3; a75HT3, [Nicotine] 0.411523 uM): 0.004115 (2×) and 0.03069 (2×) and 0 (2×)
- Response, dose-response replicates (DR 1-6) (unmodified α7–5HT3; a75HT3, [Nicotine] 0.411523 uM): 0.002 (2×) and 0.017 (2×) and 0 (2×)
- Max normalized response, AVG (unmodified α7–5HT3; a75HT3, [Nicotine] 1.23457 uM): 0.08187
- Max normalized response, replicates (unmodified α7–5HT3; a75HT3, [Nicotine] 1.23457 uM): 0.1152 (2×) and 0 (2×) and 0.09704 (2×)
- Response, dose-response replicates (DR 1-6) (unmodified α7–5HT3; a75HT3, [Nicotine] 1.23457 uM): 0.056 (2×) and 0 (2×) and 0.059 (2×)
- Max normalized response, AVG (unmodified α7–5HT3; a75HT3, [Nicotine] 3.7037 uM): 0.6699
- Max normalized response, replicates (unmodified α7–5HT3; a75HT3, [Nicotine] 3.7037 uM): 0.8354 (2×) and 0.4874 (2×) and 0.5214 (2×)
- Response, dose-response replicates (DR 1-6) (unmodified α7–5HT3; a75HT3, [Nicotine] 3.7037 uM): 0.406 (2×) and 0.27 (2×) and 0.317 (2×)
- Max normalized response, AVG (unmodified α7–5HT3; a75HT3, [Nicotine] 11.1111 uM): 1
- Max normalized response, replicates (unmodified α7–5HT3; a75HT3, [Nicotine] 11.1111 uM): 1
- Response, dose-response replicates (DR 1-6) (unmodified α7–5HT3; a75HT3, [Nicotine] 11.1111 uM): 0.486 (2×) and 0.554 (2×) and 0.608 (2×)
- Max normalized response, AVG (unmodified α7–5HT3; a75HT3, [Nicotine] 33.3333 uM): 0.8953
- Max normalized response, replicates (unmodified α7–5HT3; a75HT3, [Nicotine] 33.3333 uM): 0.8436 (2×) and 0.9711 (2×) and 0.9227 (2×)
- Response, dose-response replicates (DR 1-6) (unmodified α7–5HT3; a75HT3, [Nicotine] 33.3333 uM): 0.41 (2×) and 0.538 (2×) and 0.561 (2×)
- Max normalized response, AVG (unmodified α7–5HT3; a75HT3, [Nicotine] 100 uM): 0.8025
- Max normalized response, replicates (unmodified α7–5HT3; a75HT3, [Nicotine] 100 uM): 0.9585 (2×) and 0.8503 (2×) and 0.5988
- Response, dose-response replicates (DR 1-6) (unmodified α7–5HT3; a75HT3, [Nicotine] 100 uM): 0.291 and 0.531 (2×) and 0.517 (2×)
